The CheMixHub ionic liquid set
± gives the uncertainty stated by the source.

Assay: xn = mol fraction of the nth substance listed
Conditions: 100 kPa

viscosity (303.15 K, x2 = 0)	viscosity (308.15 K, x2 = 0)	viscosity (313.15 K, x2 = 0)	SMILES	electrical conductivity (298.15 K, x2 = 0)	viscosity (298.15 K, x2 = 0)	electrical conductivity (298.15 K, x2 = 0.2414)	viscosity (298.15 K, x2 = 0.7054)	electrical conductivity (298.15 K, x2 = 0.8427)	electrical conductivity (298.15 K, x1 = 1)	viscosity (298.15 K, x1 = 1)
			CCCCCCCCn1cc[n+](C)c1.O=S(=O)([N-]S(=O)(=O)C(F)(F)F)C(F)(F)F + CCCCOC(C)=O	0.131 ± 0.0026 S/m	90.3 ± 4.8 mPa·s	0.194 ± 0.004 S/m	6.46 ± 0.27 mPa·s	0.361 ± 0.007 S/m		
			CCCC[n+]1ccn(C)c1.F[B-](F)(F)F + OCCO						0.243 ± 0.002 S/m	104.7 ± 2.6 mPa·s
2.44 ± 0.25 mPa·s	2.22 ± 0.22 mPa·s	1.98 ± 0.2 mPa·s	CCCCOCCO + CCCC[n+]1ccn(C)c1.[Br-]		2.79 ± 0.28 mPa·s					
